# Reference: patent US8492310B2, “Herbicidal compositions containing benzoylpyrazole compounds” (priority 2008, dated 2013)
# Like-named read-outs stand apart in the source and are kept apart here.
# Assays:
# Type in all cases: in vivo
# [1] = system: crabgrass (Digitaria sanguinalis L.); test: Foliar treatment pot test, visual growth inhibition rate, crabgrass (DS); settings: Digitaria sanguinalis, foliar
# How it was run: (§1)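 Seeds were sown in upland soil pots, and plants were sprayed on the foliage at a predetermined leaf stage with herbicidal compositions diluted in water at 300 L/ha. Growth inhibition was rated visually. Expected combination activity was calculated by Colby's formula to assess synergy.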
# [2] = system: giant foxtail (Setaria faberi Herrm.); test: Foliar treatment pot test, visual growth inhibition rate, giant foxtail (SF); settings: 336 h, read-out: Growth inhibition rate (%) of SF Measured value
# Excerpt: (§2) When the herbicidal activity in a case where two active ingredients are combined, is larger than the simple sum of the respective herbicidal activities of the two active ingredients (the expected activity), it is called a synergistic effect. The activity expected by the combination of two active ingredients can be calculated as follows (Colby S. R., “Weed”, vol. 15, p. 20-22, 1967). E=α+β−(α×β÷100) where
# (§3) Upland field soil was put into a 1/1,000,000 hectare pot, and seeds of various plants (barnyardgrass (Echinochloa crus-qalli L.), crabgrass (Digitaria sanguinalis L.), giant foxtail (Setaria faberi Herrm.), velvetleaf (Abutilon theophrasti MEDIC.) and prickly sida (Sida spinosa L.)) were sown. When the respective plants reached predetermined leaf stage, herbicidal compositions in predetermined amounts were diluted with water in an amount corresponding to 300 L/ha and applied for foliar treatment by a small sprayer.
# (§4) Further, in accordance with the above Colby's formula, the growth inhibition rate (calculated value) was calculated. In Tables, with respect to the compound Q, Compound Nos. in Table 1 are described, and with respect to other herbicidal compounds, common names are described. Further, in Tables, barnyardgrass is represented by “EC”, crabgrass by “DS”, giant foxtail by “SF”, velvetleaf by “AT”, and prickly sida by “SS”.
# [3] = system: velvetleaf (Abutilon theophrasti MEDIC.); test: Foliar treatment pot test, visual growth inhibition rate, velvetleaf (AT)
# How it was run: as §1
# [4] = system: barnyardgrass (Echinochloa crus-qalli L.); test: Foliar treatment pot test, visual growth inhibition rate, barnyardgrass (EC); settings: 504 h, 4.0-5.0 leaf stage, 21 DAT, read-out: Growth inhibition rate (%) of EC Measured value
# Excerpt: as §2, §3, §4
structure (smiles),measurement,setting,value
"CCn1ncc(C(=O)c2ccc(S(C)(=O)=O)c(OCCOC)c2C)c1OC(C)OC(=O)OC (centres unmarked) [NO. 4, 1-(1-ethyl-4-(3-(2-methoxyethoxy)-2-methyl-4-(methylsulfonyl)benzoyl)-1H-pyrazol-5-yloxy)ethyl methyl carbonate]",inhibition at 7 g/ha,"[1]; 336 h, read-out: Growth inhibition rate (%) of DS Measured value, 5.0-5.5 leaf stage, 14 DAT, 7 g/ha",75%
same,inhibition at 5 g/ha,"[1]; 480 h, read-out: Growth inhibition rate (%) of DS Measured value, 3.6-3.8 leaf stage, 20 DAT, 5 g/ha",40%
same,inhibition at 10 g/ha,"[1]; 480 h, read-out: Growth inhibition rate (%) of DS Measured value, 3.6-3.8 leaf stage, 20 DAT, 10 g/ha",50%
same,inhibition at 20 g/ha,"[1]; 480 h, read-out: Growth inhibition rate (%) of DS Measured value, 3.6-3.8 leaf stage, 20 DAT, 20 g/ha",73%
same,inhibition at 5 g/ha,"[1]; 480 h, read-out: Growth inhibition rate (%) of DS Measured value, 3.7-4.0 leaf stage, 20 DAT, 5 g/ha",93%
same,inhibition at 5 g/ha,"[1]; 480 h, read-out: Growth inhibition rate (%) of DS Measured value, 4.0-4.2 leaf stage, 20 DAT, 5 g/ha",40%
same,inhibition at 10 g/ha,"[1]; 480 h, read-out: Growth inhibition rate (%) of DS Measured value, 4.0-4.2 leaf stage, 20 DAT, 10 g/ha",50%
same,inhibition at 20 g/ha,"[1]; 480 h, read-out: Growth inhibition rate (%) of DS Measured value, 4.0-4.2 leaf stage, 20 DAT, 20 g/ha",73%
same,inhibition at 5 g/ha,"[1]; 480 h, read-out: Growth inhibition rate (%) of DS Measured value, 4.5-5.2 leaf stage, 20 DAT, 5 g/ha",53%
same,inhibition at 10 g/ha,"[1]; 480 h, read-out: Growth inhibition rate (%) of DS Measured value, 4.5-5.2 leaf stage, 20 DAT, 10 g/ha",89%
same,inhibition at 10 g/ha,"[1]; 480 h, read-out: Growth inhibition rate (%) of DS Measured value, 5.0-5.2 leaf stage, 20 DAT, 10 g/ha",93%
same,inhibition at 20 g/ha,"[1]; 480 h, read-out: Growth inhibition rate (%) of DS Measured value, 5.0-5.2 leaf stage, 20 DAT, 20 g/ha",98%
same,inhibition at 5 g/ha,"[1]; 480 h, read-out: Growth inhibition rate (%) of DS Measured value, 5.1-5.2 leaf stage, 20 DAT, 5 g/ha",48%
same,inhibition at 10 g/ha,"[1]; 480 h, read-out: Growth inhibition rate (%) of DS Measured value, 5.1-5.2 leaf stage, 20 DAT, 10 g/ha",73%
same,inhibition at 5 g/ha,"[1]; 504 h, read-out: Growth inhibition rate (%) of DS Measured value, 4.0-5.1 leaf stage, 21 DAT, 5 g/ha",75%
same,inhibition at 20 g/ha,"[1]; 528 h, read-out: Growth inhibition rate (%) of DS Measured value, 4.8-5.5 leaf stage, 22 DAT, 20 g/ha",94%
same,inhibition at 7 g/ha,"[1]; 552 h, read-out: Growth inhibition rate (%) of DS Measured value, 4.0-5.1 leaf stage, 23 DAT, 7 g/ha",80%
same,inhibition at 10 g/ha,"[1]; 552 h, read-out: Growth inhibition rate (%) of DS Measured value, 4.5-5.3 leaf stage, 23 DAT, 10 g/ha",87%
same,inhibition at 20 g/ha,"[1]; 552 h, read-out: Growth inhibition rate (%) of DS Measured value, 4.5-5.3 leaf stage, 23 DAT, 20 g/ha",99%
same,inhibition at 7 g/ha,[2],75%
same,Growth inhibition rate (%) of AT Measured value,"[3]; 3.0-4.0 leaf stage, 14 DAT, 15 g/ha",80%
same,Growth inhibition rate (%) of AT Measured value,"[3]; 4.0-4.2 leaf stage, 20 DAT, 20 g/ha",98%
same,Growth inhibition rate (%) of AT Measured value,"[3]; 4.2-4.3 leaf stage, 20 DAT, 5 g/ha",58%
same,Growth inhibition rate (%) of AT Measured value,"[3]; 4.2-4.3 leaf stage, 20 DAT, 10 g/ha",65%
same,inhibition at 7 g/ha,"[3]; Abutilon theophrasti, foliar, 336 h, read-out: Growth inhibition rate (%) of AT Measured value, 3.0-4.0 leaf stage, 14 DAT, 7 g/ha",70%
same,inhibition at 5 g/ha,"[3]; Abutilon theophrasti, foliar, 480 h, read-out: Growth inhibition rate (%) of AT Measured value, 4.0-4.2 leaf stage, 20 DAT, 5 g/ha",48%
same,inhibition at 10 g/ha,"[3]; Abutilon theophrasti, foliar, 480 h, read-out: Growth inhibition rate (%) of AT Measured value, 4.0-4.2 leaf stage, 20 DAT, 10 g/ha",73%
same,inhibition at 5 g/ha,"[3]; Abutilon theophrasti, foliar, 480 h, read-out: Growth inhibition rate (%) of AT Measured value, 4.1-4.2 leaf stage, 20 DAT, 5 g/ha",55%
same,inhibition at 10 g/ha,"[3]; Abutilon theophrasti, foliar, 480 h, read-out: Growth inhibition rate (%) of AT Measured value, 4.1-4.2 leaf stage, 20 DAT, 10 g/ha",63%
same,inhibition at 10 g/ha,"[3]; Abutilon theophrasti, foliar, 480 h, read-out: Growth inhibition rate (%) of AT Measured value, 4.2-4.3 leaf stage, 20 DAT, 10 g/ha",63%
same,inhibition at 20 g/ha,"[3]; Abutilon theophrasti, foliar, 480 h, read-out: Growth inhibition rate (%) of AT Measured value, 4.2-4.3 leaf stage, 20 DAT, 20 g/ha",70%
same,inhibition at 5 g/ha,"[3]; Abutilon theophrasti, foliar, 504 h, read-out: Growth inhibition rate (%) of AT Measured value, 4.0-4.3 leaf stage, 21 DAT, 5 g/ha",35%
same,inhibition at 10 g/ha,"[3]; Abutilon theophrasti, foliar, 504 h, read-out: Growth inhibition rate (%) of AT Measured value, 4.0-4.3 leaf stage, 21 DAT, 10 g/ha",60%
same,inhibition at 5 g/ha,"[3]; Abutilon theophrasti, foliar, 504 h, read-out: Growth inhibition rate (%) of AT Measured value, AT 4.0-4.3 leaf stage, 21 DAT, active ingredient 5 g/ha",35%
same,inhibition at 10 g/ha,"[3]; Abutilon theophrasti, foliar, 504 h, read-out: Growth inhibition rate (%) of AT Measured value, AT 4.0-4.3 leaf stage, 21 DAT, active ingredient 10 g/ha",60%
same,inhibition at 5 g/ha,"[3]; Abutilon theophrasti, foliar, 528 h, read-out: Growth inhibition rate (%) of AT Measured value, 4.5-5.0 leaf stage, 22 DAT, 5 g/ha",40%
same,inhibition at 10 g/ha,"[3]; Abutilon theophrasti, foliar, 528 h, read-out: Growth inhibition rate (%) of AT Measured value, 4.5-5.0 leaf stage, 22 DAT, 10 g/ha",50%
same,inhibition at 20 g/ha,"[3]; Abutilon theophrasti, foliar, 528 h, read-out: Growth inhibition rate (%) of AT Measured value, 4.5-5.0 leaf stage, 22 DAT, 20 g/ha",90%
same,inhibition at 5 g/ha,"[3]; Abutilon theophrasti, foliar, 552 h, read-out: Growth inhibition rate (%) of AT Measured value, 3.0-4.2 leaf stage, 23 DAT, 5 g/ha",75%
same,inhibition at 10 g/ha,"[3]; Abutilon theophrasti, foliar, 552 h, read-out: Growth inhibition rate (%) of AT Measured value, 3.0-4.2 leaf stage, 23 DAT, 10 g/ha",90%
same,inhibition at 20 g/ha,"[3]; Abutilon theophrasti, foliar, 552 h, read-out: Growth inhibition rate (%) of AT Measured value, 3.0-4.2 leaf stage, 23 DAT, 20 g/ha",95%
"CCCCCCCCSC(=O)Oc1cc(Cl)nnc1-c1ccccc1 [Pyridate, pyridate]",inhibition at 100 g/ha,[4]; 100 g/ha,0%
same,inhibition at 200 g/ha,"[1]; 528 h, 4.0-5.0 leaf stage, 22 DAT, 200 g/ha, read-out: Growth inhibition rate (%) of DS Measured value",0%
same,inhibition at 100 g/ha,"[2]; 4.0-5.0 leaf stage, 14 DAT, 100 g/ha",0%
same,inhibition at 200 g/ha,"[3]; Abutilon theophrasti, foliar, 336 h, 4.1-4.5 leaf stage, 14 DAT, 200 g/ha, read-out: Growth inhibition rate (%) of AT Measured value",30%
COC(=O)c1sccc1S(=O)(=O)NC(=O)Nc1nc(C)nc(OC)n1 [Thifensulfuron-methyl],inhibition at 5 g/ha,[4]; 5 g/ha,0%
same,inhibition at 5 g/ha,"[2]; 4.0-5.0 leaf stage, 14 DAT, 5 g/ha",0%
